Experimental data from patent publication US20040034082A1, “Utilization of pyrazoline derivatives in the preparation of a medicament for the prevention and/or treatment of proliferative cell diseases” (priority 2001, published 2004).
In brackets after ≈: the same amount, converted by molar mass. Read-outs that look alike come from different tables or passages of the source. Each block holds one molecule with its values, some of them ahead of it.

Key:
NC59 = assay: Cytotoxicity (XTT kit), human colon carcinoma cell line NC59; type: cell-based; details: for IC50: read-out: IC-50 (cytotoxicity)
Experimental: (§1) The anti-tumoral activity of the compounds with general formula (I) was studied, determining their effect on cell lines of human colon carcinoma (TD 20 and NC 59). The two cell lines have the wild protein K-Ras. TD20 contains a mutation of the p53 suppressor gene, while NC59 has the p53 wild protein.
(§2) Both cell lines were cultured in a DMEM medium (Life Technologies) supplemented with 10% foetal bovine serum (Life Technologies) at 37° C. and 5% CO2.
(§3) Cytotoxicity tests were carried out using the XTT kit (Boehringer-Manheim) which measures the cell capability to metabolise a tetrazoyl salt to formazan.

TD 20 = assay: Cytotoxicity (XTT kit), human colon carcinoma cell line TD20; type: cell-based; details: for IC50: read-out: IC-50 (cytotoxicity)
Experimental: as §1, §2, §3

TD20 = assay: Induction of apoptosis in tumour cell line TD20; type: cell-based, human; details: 100 μM
Experimental: In order to obtain a deeper knowledge of the action mechanism of these compounds the capability to induce apoptosis in the tumour cell line TD20 of the compound of example 3 was studied (dose 100 μM).

NC59 cells = assay: Signal transduction paths associated to apoptosis in NC59 cells; type: cell-based, human; details: 100 μM, 5 and 20 hours of exposure
Experimental: The signal transduction paths associated to the apoptosis process were then studied. After exposing NC59 cells to a 100 μM concentration of the compound of example 3, the expression levels were studied for p53, FAK and β-actine and the activation level of MAP kinases, JNK and PKB/Akt, after 5 and 20 hours of exposure.

MDAMB 453 = assay: Cytotoxicity (XTT kit), mammary carcinoma cell line MDAMB 453; type: cell-based; details: for viability at 1 µM / viability at 20 µM / viability at 40 µM / viability at 60 µM / viability at 80 µM: MDA-MB-453, read-out: % Viability of mammary cancer cells ± SD; for IC50: read-out: IC-50 (cytotoxicity)
Experimental: The anti-tumoral activity of the compounds with general formula (I) was studied, determining their effect on a mammary carcinoma cell line (MDAMB 453). The cell line was cultured in a DMEM medium (Life Technologies) supplemented with 10% foetal bovine serum (Life Technologies) at 37° C. and 5% CO2.
as §3

[1] = system: promoter of the human VEGF gene; assay: Inhibition of the induction of VEGF: promoter-luciferase in transfected Caco-2 cells, TPA; type: cell-based; details: TPA 16 hours, read-out: Inhibition of the induction of VEGF IC-50
Description: This activity has been studied determining the inhibition of the induction of the expression of VEGF. The increased expression of vascular-endothelial growth factor (VEGF) has been related to tumour progression and angiogenesis. VEGF is a proangiogenic factor, promoting mitogenesis, migration and an increased vascular permeability of in vitro endothelial cells. It has been shown recently that COX-2 can regulate the angiogenesis process induced by colon cancer cells, increasing the expression of proangiogenic factors by said cells. Inhibition of COX-2 may block this process, inhibiting the expression of some of these factors, such as VEGF.
(§4) In order to study the antiangiogenic activity of the products with general formula (I), the expression of the VEGF promoter was studied in a basal and stimulated situation using the Caco-2 human colon carcinoma cell line, temporally transfected with a vector containing the promoter f the human VEGF gene. Once the test conditions were established the capability of the product studied to inhibit the expression of the VEGF and TF genes was studied by measuring the luciferase activity of their promoters.
In the test 1.25×10^5 Caco-2 cells were used temporally transfected with t corresponding DNA in 500 μl of DEMEM-10% FCS medium in 24 dimple plates. […]

TF = assay: Inhibition of the induction of TF: promoter-luciferase in transfected Caco-2 cells, TPA; type: cell-based; details: Homo sapiens, TPA 16 hours, read-out: Inhibition of the induction of TF IC-50
Description: In turn, VEGF also induces the expression of Tissue Factor (TF) in monocyte membranes, epithelial cells and endothelium. Although the main function of TF is to initiate the coagulation cascade, it can transduce intracellular signals participating in metastasis and angiogenesis associated to tumours. TF facilitates in vivo growth of the tumour, favouring angiogenesis.
as §4
In the test 1.25×10^5 Caco-2 cells were used temporally transfected with t corresponding DNA in 500 μl of DEMEM-10% FCS medium in 24 dimple plates. The cells were pre-treated for 1 hour with the compounds to be tested, and later stimulated with TPA for 16 hours. Afterwards cell extracts were obtained and their luciferase activity examined, determining the protein concentration.

[2] = system: promoter of the gene COX-2; assay: Inhibition of the induction of COX-2: stable transfectant JURKAT cells, COX-2 promoter-luciferase, TPA+ionomycine; type: cell-based; details: Homo sapiens
TNF-α = assay: Inhibition of TNF-α, zymosan air pouch model in mice (ELISA); type: in vivo; details: i.p.
Experimental: The study of the inhibitory activity of TNF-α has been performed according to the method described by P. Klemen et al. (Europ. J. Pharmacol. 1995 281: 69-74), consisting of determining the production of TNF-α in the localised area where the inflammation is acute, specifically using the zymosan inflated air pouch model in mice. The TNF-α present in the inflammatory exudates produced in said pouch as a result of the stimulation with zymosan was determined. The analytical determination of TNF-α was performed by ELISA.

[3] = Homo sapiens, Colon carcinoma cell, read-out: % Viability of colorectal cancer cells ± SD
[4] = Homo sapiens, Colon carcinoma cell, 30 μM, read-out: % Viability of colorectal cancer cells ± SD
[5] = Homo sapiens, Colon carcinoma cell, 100 μM, read-out: % Viability of colorectal cancer cells ± SD
[6] = Homo sapiens, Colon carcinoma cell
[7] = Homo sapiens, Colon carcinoma cell, 80 μM, read-out: % Viability of colorectal cancer cells ± SD

- IC50 [1]: 20 µg/mL (≈ 49.3 µM)
- IC50 (TF): 25 µg/mL (≈ 61.7 µM)
SMILES: NS(=O)(=O)c1ccc(N2N=C(C(F)(F)F)CC2c2ccc(F)cc2F)cc1 (racemic) [Example 3, 1-(4-aminosulphonylphenyl)-5(2,4-difluorophenyl)-4,5-dihydro-3-trifluoromethyl-1H-pyrazol]
- viability at 1 µM (NC59; [3]): 99.64 ± 0.51%
- viability at 20 µM (NC59; [3]): 76.5 ± 8.7%
- viability at 30 µM (NC59; [4]): 56.5 ± 0.25%
- viability at 40 µM (NC59; [3]): 16.7 ± 10.5%
- viability at 60 µM (NC59; [3]): 1.16 ± 0.83%
- viability at 100 µM (NC59; [5]): 0%
- IC50 (NC59; [6]): 30 µM
- IC50 (NC59): 29.9 µM
- viability at 1 µM (TD 20; [3]): 98.6 ± 2.83%
- viability at 20 µM (TD 20; [3]): 84.5 ± 3.05%
- viability at 30 µM (TD 20; [4]): 66.3 ± 5.84%
- viability at 40 µM (TD 20; [3]): 27.4 ± 4.12%
- viability at 60 µM (TD 20; [3]): 1.79 ± 2.09%
- viability at 100 µM (TD 20; [5]): 0.69 ± 0.01%
- IC50 (TD 20; [6]): 34 µM
- IC50 (TD 20): 33.9 µM
- apoptotic cells (TD20; after 24 h): 20%
- apoptotic cells (TD20; after 48 h): 80%
- signal transduction paths activated (p53, FAK, β-actine expression; MAP kinases, JNK, PKB/Akt activation) (NC59 cells): activation of signal transduction paths other than p53, JNK or p38
- viability at 1 µM (MDAMB 453; Homo sapiens, MDAMB 453): 94.8 ± 8.71%
- viability at 20 µM (MDAMB 453; Homo sapiens, MDAMB 453): 31.5 ± 9.12%
- viability at 40 µM (MDAMB 453; Homo sapiens, MDAMB 453): 12.8 ± 4.8%
- viability at 60 µM (MDAMB 453; Homo sapiens, MDAMB 453): 5.97 ± 5.06%
- viability at 80 µM (MDAMB 453; Homo sapiens, MDAMB 453): 2.84 ± 1.71%

- IC50 ([2]; Clone C7, read-out: IC-50 (μg/ml), inhibition of luciferase activity): 5.8 µg/mL (≈ 15 µM)
- IC50 ([2]; Clone C9, read-out: IC-50 (μg/ml), inhibition of luciferase activity): 0.9 µg/mL (≈ 2.33 µM)
- IC50 ([2]; Clone F9, read-out: IC-50 (μg/ml), inhibition of luciferase activity): 1.8 µg/mL (≈ 4.66 µM)
- IC50 [1]: 25 µg/mL (≈ 64.7 µM)
- IC50 (TF): 22 µg/mL (≈ 56.9 µM)
SMILES: CS(=O)(=O)c1ccc(C2CC(C(F)(F)F)=NN2c2ccc(F)cc2)cc1 (stereo not drawn) [Example 10]
- inhibition at 0.5 µg/mL ([2]; Clone C7, 0.5 μg/ml): 20%
- inhibition at 5 µg/mL ([2]; Clone C7, 5 μg/ml): 55%
- inhibition at 50 µg/mL ([2]; Clone C7, 50 μg/ml): 85%
- inhibition at 0.5 µg/mL ([2]; Clone C9, 0.5 μg/ml): 40%
- inhibition at 5 µg/mL ([2]; Clone C9, 5 μg/ml): 75%
- inhibition at 50 µg/mL ([2]; Clone C9, 50 μg/ml): 85%
- inhibition at 0.5 µg/mL ([2]; Clone F9, 0.5 μg/ml): 32%
- inhibition at 5 µg/mL ([2]; Clone F9, 5 μg/ml): 65%
- inhibition at 50 µg/mL ([2]; Clone F9, 50 μg/ml): 95%
- viability at 1 µM (NC59; [3]): 92.1 ± 9.35%
- viability at 20 µM (NC59; [3]): 76.1 ± 7.17%
- viability at 40 µM (NC59; [3]): 15.8 ± 9.37%
- viability at 60 µM (NC59; [3]): 2.59 ± 1.54%
- viability at 80 µM (NC59; [7]): 1.66 ± 1.57%
- IC50 (NC59; [6]): 27 µM
- IC50 (NC59): 27.2 µM
- viability at 1 µM (TD 20; [3]): 95 ± 8.87%
- viability at 20 µM (TD 20; [3]): 90.2 ± 5.97%
- viability at 40 µM (TD 20; [3]): 43.1 ± 13.8%
- viability at 60 µM (TD 20; [3]): 5.42 ± 4.11%
- viability at 80 µM (TD 20; [7]): 3.22 ± 3.46%
- IC50 (TD 20; [6]): 38 µM
- IC50 (TD 20): 37.9 µM
- IC50 (MDAMB 453; Homo sapiens, MDA-MB-453, MDAMB 453): 18 µM
- viability at 1 µM (MDAMB 453; Homo sapiens, MDAMB 453): 97.5 ± 3.25%
- viability at 20 µM (MDAMB 453; Homo sapiens, MDAMB 453): 42.8 ± 9.31%
- viability at 40 µM (MDAMB 453; Homo sapiens, MDAMB 453): 33.3 ± 7.34%
- viability at 60 µM (MDAMB 453; Homo sapiens, MDAMB 453): 8.25 ± 6.82%
- viability at 80 µM (MDAMB 453; Homo sapiens, MDAMB 453): 5.8 ± 4.76%
- IC50 (MDAMB 453; MDAMB 453): 17.9 µM
- % Inhibition of TNF-α in inflammatory exudate stimulated by zymosan (TNF-α; 0.039 mg/kg): 12.6 ± 2.6%
- % Inhibition of TNF-α in inflammatory exudate stimulated by zymosan (TNF-α; 0.156 mg/kg): 15.7 ± 4.9%
- % Inhibition of TNF-α in inflammatory exudate stimulated by zymosan (TNF-α; 0.625 mg/kg): 46.8 ± 12.5%
- % Inhibition of TNF-α in inflammatory exudate stimulated by zymosan (TNF-α; 2.5 mg/kg): 58.8 ± 13.6%
- DE-50, inhibition of TNF-α (TNF-α): DE-50 = 1.20 mg/kg, i.p.

- melting point: 157 to 159 °C
SMILES: NS(=O)(=O)c1ccc(N2N=C(C(F)(F)F)CC2c2ccccc2Cl)cc1 (stereo not drawn) [Example 60]

- melting point: 180 to 185 °C
SMILES: NS(=O)(=O)c1ccc(N2N=C(C(F)(F)F)CC2c2ccc(Cl)cc2F)cc1 (stereo not drawn) [Example 61]

- melting point: 154 to 160 °C
SMILES: Cc1cc(F)ccc1C1CC(C(F)(F)F)=NN1c1ccc(S(N)(=O)=O)cc1 (stereo not drawn) [Example 62]

- melting point: 166 to 167 °C
SMILES: Cc1ccc(C2CC(C(F)(F)F)=NN2c2ccc(S(N)(=O)=O)cc2)c(F)c1 (stereo not drawn) [Example 63]

- melting point: 117 to 121 °C
SMILES: CS(=O)(=O)c1ccc(C2CC(C(F)(F)F)=NN2c2ccc(Cl)cc2)cc1 (stereo not drawn) [Example 65]

- melting point: 114 to 115 °C
SMILES: CS(=O)(=O)c1ccc(C2CC(C(F)(F)F)=NN2c2ccccc2)cc1 (stereo not drawn) [Example 66]

- melting point: 98 to 99 °C
SMILES: CS(=O)(=O)c1ccc(C2CC(C(F)(F)F)=NN2c2ccccc2F)cc1 (stereo not drawn) [Example 67]

- melting point: 104 to 108 °C
SMILES: Cc1cc(Cl)ccc1N1N=C(C(F)(F)F)CC1c1ccc(S(C)(=O)=O)cc1 (stereo not drawn) [Example 68]

- melting point: 116 to 117 °C
SMILES: CS(=O)(=O)c1ccc(C2CC(C(F)(F)F)=NN2c2cccc(F)c2)cc1 (stereo not drawn) [Example 69]

- melting point: 114 to 116 °C
SMILES: Cc1cccc(N2N=C(C(F)(F)F)CC2c2ccc(S(C)(=O)=O)cc2)c1 (stereo not drawn) [Example 70]

- melting point: 132 to 133 °C
SMILES: Cc1ccc(N2N=C(C(F)(F)F)CC2c2ccc(S(C)(=O)=O)cc2)c(C)c1 (stereo not drawn) [Example 71]

- melting point: 103 to 106 °C
SMILES: CS(=O)(=O)c1ccc(C2CC(C(F)(F)F)=NN2c2ccc(Cl)cc2Cl)cc1 (stereo not drawn) [Example 74]

- melting point: 138 to 140 °C
SMILES: NS(=O)(=O)c1ccc(C2CC(C(F)(F)F)=NN2c2ccc(F)cc2)cc1 (stereo not drawn) [Example 76]

- melting point: 132 to 135 °C
SMILES: CC1=NN(c2ccccc2)C(c2ccc(S(C)(=O)=O)cc2)C1 (stereo not drawn) [Example 77]

- melting point: 155 to 160 °C
SMILES: CS(=O)(=O)c1ccc(C2CC=NN2c2ccc(F)cc2)cc1 (stereo not drawn) [Example 78]
